Patent publication US7074789B2, “Kinase inhibitors” (Amgen Inc., priority 1999, dated 2006)

How the values were obtained:
Type in all cases: biochemical
Kdr = target: T1, Kdr (Homo sapiens, UniProt P35968); assay: Kinase inhibition assay (33P transfer), Kdr; settings: read-out: KDR-1
T1 construct: Kinases are expressed as either kinase domains or full length constructs; made in house
Summary of the method: (§1)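 Liquid scintillation counting of 33P on plate-bound synthetic substrates gives kinase activity. Plates are washed in 0.5% phosphoric acid first; kinases are tagged recombinant proteins from E. coli or baculovirus-infected High Five cells.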

Zap-70 = target: T2, Zap-70 (Homo sapiens, UniProt P43403); assay: Kinase inhibition assay (33P transfer), Zap-70; settings: read-out: Zap-1
T2 construct: Kinases are expressed as either kinase domains or full length constructs; made in house
T2 sequence (P43403 1-619): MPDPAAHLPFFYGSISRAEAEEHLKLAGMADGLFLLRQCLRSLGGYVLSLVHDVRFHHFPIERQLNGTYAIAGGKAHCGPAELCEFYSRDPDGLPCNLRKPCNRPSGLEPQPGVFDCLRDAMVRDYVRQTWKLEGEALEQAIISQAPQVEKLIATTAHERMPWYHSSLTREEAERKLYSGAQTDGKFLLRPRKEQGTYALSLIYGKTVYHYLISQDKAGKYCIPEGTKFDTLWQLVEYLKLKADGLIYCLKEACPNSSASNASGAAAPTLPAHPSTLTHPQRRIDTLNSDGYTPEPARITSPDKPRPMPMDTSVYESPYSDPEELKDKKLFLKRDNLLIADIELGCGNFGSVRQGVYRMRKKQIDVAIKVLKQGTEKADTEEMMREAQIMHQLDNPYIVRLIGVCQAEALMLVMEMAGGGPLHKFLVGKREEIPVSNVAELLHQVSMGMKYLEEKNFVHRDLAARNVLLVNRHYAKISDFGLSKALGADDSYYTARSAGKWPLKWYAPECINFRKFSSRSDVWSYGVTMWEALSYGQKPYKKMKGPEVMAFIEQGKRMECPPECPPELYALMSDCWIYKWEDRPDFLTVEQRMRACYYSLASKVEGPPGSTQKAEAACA
Summary of the method: as §1

Itk = target: T3, Itk (Homo sapiens, UniProt Q08881); assay: Kinase inhibition assay (33P transfer), Itk; settings: read-out: Itk-1
T3 construct: Kinases are expressed as either kinase domains or full length constructs; made in house
T3 sequence (Q08881 1-620): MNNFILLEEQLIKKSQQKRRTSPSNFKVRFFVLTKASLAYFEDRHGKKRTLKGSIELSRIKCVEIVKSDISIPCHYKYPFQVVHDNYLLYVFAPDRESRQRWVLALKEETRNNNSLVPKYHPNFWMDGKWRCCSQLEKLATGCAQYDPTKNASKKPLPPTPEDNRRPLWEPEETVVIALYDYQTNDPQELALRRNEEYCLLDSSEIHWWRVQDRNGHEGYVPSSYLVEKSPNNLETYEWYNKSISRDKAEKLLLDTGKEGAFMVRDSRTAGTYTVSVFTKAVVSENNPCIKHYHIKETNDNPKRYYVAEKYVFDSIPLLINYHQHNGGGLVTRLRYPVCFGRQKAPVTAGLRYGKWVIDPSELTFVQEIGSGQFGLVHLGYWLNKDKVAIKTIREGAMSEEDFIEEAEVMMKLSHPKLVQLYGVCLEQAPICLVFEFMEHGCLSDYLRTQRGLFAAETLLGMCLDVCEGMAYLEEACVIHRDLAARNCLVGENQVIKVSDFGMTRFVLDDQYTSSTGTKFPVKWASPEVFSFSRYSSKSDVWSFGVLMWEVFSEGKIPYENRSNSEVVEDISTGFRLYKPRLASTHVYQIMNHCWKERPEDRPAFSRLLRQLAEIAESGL
Summary of the method: (§2)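 Recombinant kinase domains or full-length GST- or His-tagged constructs, from E. coli or baculovirus/High Five cells, sometimes with regulatory polypeptides. Transfer of 33P from ATP to plate-bound poly(Glu,Tyr) 4:1 or poly(Arg,Ser) 3:1 counted by liquid scintillation after phosphoric acid wash; IC50 is the concentration halving incorporation.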

EGFR = target: T4, EGFR (Homo sapiens, UniProt P00533); assay: Kinase inhibition assay (33P transfer), EGFR; settings: Table 2, kinase inhibition class; read-out: EGFR-1
T4 construct: Kinases are expressed as either kinase domains or full length constructs; made in house
T4 sequence (P00533 25-1210, species assumed): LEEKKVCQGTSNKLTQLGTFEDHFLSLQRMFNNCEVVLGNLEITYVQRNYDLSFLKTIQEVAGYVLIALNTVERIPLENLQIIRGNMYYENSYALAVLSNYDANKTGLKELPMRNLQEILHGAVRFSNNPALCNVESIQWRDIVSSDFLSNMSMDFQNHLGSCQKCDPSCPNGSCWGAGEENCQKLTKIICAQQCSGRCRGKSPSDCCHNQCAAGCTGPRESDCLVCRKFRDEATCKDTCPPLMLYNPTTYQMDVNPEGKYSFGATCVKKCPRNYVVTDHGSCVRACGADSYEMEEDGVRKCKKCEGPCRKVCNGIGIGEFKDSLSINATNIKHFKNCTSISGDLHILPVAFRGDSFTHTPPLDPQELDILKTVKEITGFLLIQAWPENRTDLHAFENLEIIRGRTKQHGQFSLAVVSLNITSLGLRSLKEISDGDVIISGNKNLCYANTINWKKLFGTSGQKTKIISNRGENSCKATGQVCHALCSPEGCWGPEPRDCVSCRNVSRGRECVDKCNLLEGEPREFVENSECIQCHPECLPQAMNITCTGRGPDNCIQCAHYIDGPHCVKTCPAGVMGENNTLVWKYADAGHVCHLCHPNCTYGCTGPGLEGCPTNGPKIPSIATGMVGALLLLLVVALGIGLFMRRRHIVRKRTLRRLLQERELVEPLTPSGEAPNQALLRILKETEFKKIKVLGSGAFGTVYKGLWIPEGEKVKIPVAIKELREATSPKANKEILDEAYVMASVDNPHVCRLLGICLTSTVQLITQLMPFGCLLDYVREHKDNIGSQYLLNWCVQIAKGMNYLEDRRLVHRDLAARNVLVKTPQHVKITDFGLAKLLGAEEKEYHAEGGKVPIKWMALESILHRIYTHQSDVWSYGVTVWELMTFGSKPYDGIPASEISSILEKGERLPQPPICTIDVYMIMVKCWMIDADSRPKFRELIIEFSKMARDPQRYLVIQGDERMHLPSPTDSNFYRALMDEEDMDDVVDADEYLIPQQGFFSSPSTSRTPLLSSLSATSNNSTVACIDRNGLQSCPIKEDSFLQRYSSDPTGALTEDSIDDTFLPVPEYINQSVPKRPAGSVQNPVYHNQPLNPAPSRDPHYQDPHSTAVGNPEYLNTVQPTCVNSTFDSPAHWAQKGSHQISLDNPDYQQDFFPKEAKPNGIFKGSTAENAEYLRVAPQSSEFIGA
Summary of the method: as §2

Lck = target: T5, Lck (Homo sapiens, UniProt P06239); assay: Kinase inhibition assay (33P transfer), Lck; settings: read-out: Lck-1
T5 construct: Kinases are expressed as either kinase domains or full length constructs; made in house
T5 sequence (P06239 whole entry, species assumed, the tested form may be a part): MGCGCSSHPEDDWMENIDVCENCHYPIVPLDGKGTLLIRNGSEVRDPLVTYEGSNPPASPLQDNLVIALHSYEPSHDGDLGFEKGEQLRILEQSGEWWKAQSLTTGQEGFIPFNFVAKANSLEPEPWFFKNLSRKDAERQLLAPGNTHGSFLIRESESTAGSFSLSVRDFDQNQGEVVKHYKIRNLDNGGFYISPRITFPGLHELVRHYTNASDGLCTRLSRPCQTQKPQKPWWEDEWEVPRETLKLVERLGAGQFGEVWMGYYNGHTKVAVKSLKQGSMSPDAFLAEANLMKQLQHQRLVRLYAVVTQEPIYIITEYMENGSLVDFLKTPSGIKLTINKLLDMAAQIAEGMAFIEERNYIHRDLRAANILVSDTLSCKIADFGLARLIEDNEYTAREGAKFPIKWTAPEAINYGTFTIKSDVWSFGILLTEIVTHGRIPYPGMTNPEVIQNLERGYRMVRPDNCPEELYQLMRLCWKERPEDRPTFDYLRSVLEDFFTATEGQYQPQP
Summary of the method: as §1

PDGFRB = target: T6, PDGFRB (Homo sapiens, UniProt P09619); assay: Kinase inhibition assay (33P transfer), PDGFRB; settings: read-out: PDGFRB-1
T6 construct: Kinases are expressed as either kinase domains or full length constructs; made in house
T6 sequence (P09619 33-1106, species assumed): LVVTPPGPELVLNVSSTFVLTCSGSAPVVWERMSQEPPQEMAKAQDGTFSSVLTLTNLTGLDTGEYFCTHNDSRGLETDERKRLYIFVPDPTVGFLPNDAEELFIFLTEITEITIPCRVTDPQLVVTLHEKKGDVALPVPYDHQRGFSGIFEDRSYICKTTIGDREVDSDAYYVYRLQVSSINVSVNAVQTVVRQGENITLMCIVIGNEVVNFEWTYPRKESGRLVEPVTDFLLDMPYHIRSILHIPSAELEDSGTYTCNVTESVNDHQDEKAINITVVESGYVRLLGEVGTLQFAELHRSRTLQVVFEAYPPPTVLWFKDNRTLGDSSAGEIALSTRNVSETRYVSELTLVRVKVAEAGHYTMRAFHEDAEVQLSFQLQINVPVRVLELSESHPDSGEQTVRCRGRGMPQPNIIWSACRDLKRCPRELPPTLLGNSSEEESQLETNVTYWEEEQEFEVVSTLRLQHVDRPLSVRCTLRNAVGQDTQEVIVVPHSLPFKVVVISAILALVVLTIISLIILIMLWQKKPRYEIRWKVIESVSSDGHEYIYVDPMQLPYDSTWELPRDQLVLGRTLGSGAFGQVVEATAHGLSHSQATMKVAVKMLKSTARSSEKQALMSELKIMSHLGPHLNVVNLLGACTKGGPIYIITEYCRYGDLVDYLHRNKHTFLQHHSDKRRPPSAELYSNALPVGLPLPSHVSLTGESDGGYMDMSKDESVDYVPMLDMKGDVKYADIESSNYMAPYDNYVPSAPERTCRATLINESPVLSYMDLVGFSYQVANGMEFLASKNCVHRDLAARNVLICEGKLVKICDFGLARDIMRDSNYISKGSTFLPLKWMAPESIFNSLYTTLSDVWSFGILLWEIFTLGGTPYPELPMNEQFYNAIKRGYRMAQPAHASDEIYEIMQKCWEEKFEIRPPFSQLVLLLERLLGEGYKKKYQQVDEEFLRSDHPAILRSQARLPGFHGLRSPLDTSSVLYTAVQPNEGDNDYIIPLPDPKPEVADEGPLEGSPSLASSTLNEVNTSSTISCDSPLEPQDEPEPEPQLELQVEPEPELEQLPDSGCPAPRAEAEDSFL

AKT = target: T7, AKT (Homo sapiens, UniProt Q9Y243); assay: Kinase inhibition assay (33P transfer), AKT; settings: Table 2, kinase inhibition class; read-out: AKT3-1
T7 construct: Kinases are expressed as either kinase domains or full length constructs; made in house
T7 sequence (Q9Y243 whole entry, the tested form may be a part): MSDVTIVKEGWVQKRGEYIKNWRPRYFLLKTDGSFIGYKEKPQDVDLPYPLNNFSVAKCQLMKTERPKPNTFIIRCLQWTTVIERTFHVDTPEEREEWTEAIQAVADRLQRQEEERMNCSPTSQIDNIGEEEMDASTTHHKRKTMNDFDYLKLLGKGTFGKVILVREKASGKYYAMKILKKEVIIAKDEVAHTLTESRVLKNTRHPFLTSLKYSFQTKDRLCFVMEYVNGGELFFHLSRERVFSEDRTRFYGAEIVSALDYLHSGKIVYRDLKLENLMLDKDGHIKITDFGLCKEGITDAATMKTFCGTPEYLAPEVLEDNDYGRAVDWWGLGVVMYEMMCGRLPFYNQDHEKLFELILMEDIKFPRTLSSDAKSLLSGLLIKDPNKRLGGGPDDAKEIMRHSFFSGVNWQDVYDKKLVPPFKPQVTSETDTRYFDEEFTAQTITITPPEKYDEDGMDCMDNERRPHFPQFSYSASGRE
Summary of the method: as §1

ErbB2 = target: T8, ErbB2 (Homo sapiens, UniProt P04626); assay: Kinase inhibition assay (33P transfer), ErbB2; settings: read-out: ErbB2-2
T8 construct: Kinases are expressed as either kinase domains or full length constructs; made in house
Summary of the method: as §2

c-Met = target: T9, c-Met (Homo sapiens, UniProt P08581); assay: Kinase inhibition assay (33P transfer), c-Met; settings: Table 2, kinase inhibition class; read-out: Met-1
T9 construct: Kinases are expressed as either kinase domains or full length constructs; made in house
Summary of the method: as §2

IGFR-1 = target: T10, IGFR-1 (Homo sapiens, UniProt P08069); assay: Kinase inhibition assay, IGFR-1 (Table 2); settings: Table 2, kinase inhibition class
T10 construct: Kinases are expressed as either kinase domains or full length constructs; made in house
T10 sequence (P08069 31-1367): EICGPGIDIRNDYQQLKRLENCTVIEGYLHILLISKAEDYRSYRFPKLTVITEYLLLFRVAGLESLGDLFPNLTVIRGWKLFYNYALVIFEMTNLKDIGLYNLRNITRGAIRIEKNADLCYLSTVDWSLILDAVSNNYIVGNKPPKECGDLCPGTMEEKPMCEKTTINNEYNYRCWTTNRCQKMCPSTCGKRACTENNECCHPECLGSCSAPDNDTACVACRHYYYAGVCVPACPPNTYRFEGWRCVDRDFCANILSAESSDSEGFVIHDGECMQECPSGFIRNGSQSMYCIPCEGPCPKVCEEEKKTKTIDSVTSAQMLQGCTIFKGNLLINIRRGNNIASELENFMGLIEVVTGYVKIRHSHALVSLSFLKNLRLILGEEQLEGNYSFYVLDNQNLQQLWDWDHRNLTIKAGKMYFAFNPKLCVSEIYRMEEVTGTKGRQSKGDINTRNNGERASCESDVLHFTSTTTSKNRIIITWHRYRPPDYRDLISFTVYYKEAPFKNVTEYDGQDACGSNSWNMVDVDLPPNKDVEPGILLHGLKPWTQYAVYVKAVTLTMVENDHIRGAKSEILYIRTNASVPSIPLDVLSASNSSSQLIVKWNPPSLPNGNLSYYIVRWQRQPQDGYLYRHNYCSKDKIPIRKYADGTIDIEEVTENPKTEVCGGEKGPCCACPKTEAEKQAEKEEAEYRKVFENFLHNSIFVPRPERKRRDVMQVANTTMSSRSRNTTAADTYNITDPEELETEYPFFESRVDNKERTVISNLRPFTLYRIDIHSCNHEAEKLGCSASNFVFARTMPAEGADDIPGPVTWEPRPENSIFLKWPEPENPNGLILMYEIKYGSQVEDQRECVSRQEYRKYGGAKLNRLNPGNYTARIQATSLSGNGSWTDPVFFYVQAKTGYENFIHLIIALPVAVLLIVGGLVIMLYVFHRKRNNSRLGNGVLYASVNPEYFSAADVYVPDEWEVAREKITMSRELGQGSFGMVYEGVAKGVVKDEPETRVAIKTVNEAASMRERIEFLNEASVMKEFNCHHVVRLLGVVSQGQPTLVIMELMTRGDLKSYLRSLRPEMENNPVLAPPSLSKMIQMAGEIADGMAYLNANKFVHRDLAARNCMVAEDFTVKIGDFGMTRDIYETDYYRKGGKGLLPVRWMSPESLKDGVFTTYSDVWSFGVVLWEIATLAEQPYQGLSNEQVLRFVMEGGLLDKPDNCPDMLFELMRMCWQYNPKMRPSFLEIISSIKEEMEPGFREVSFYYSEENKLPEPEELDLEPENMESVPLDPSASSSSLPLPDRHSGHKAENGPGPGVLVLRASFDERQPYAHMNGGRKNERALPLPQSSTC

| Structure (SMILES) | IC50 (Kdr) | IC50 (Zap-70) | IC50 (Itk) | IC50 (EGFR) | IC50 (Lck) | IC50 (PDGFRB) | IC50 (AKT) | IC50 (ErbB2) | IC50 (c-Met) | IC50 (IGFR-1) |
| --- | --- | --- | --- | --- | --- | --- | --- | --- | --- | --- |
| COc1ccc(CNc2nc3ccccc3n2-c2ncnc(Nc3cccc(Cc4nnn[nH]4)c3)n2)cc1 [Compound 959] | < 0.791 µM | 0.791 to 4.75 µM | 0.791 to 4.75 µM | 0.791 to 4.75 µM | 0.791 to 4.75 µM | 0.791 to 4.75 µM | 0.791 to 4.75 µM | 4.75 to 6.92 µM | 0.791 to 4.75 µM | 0.791 to 4.75 µM |
| COc1cc(Nc2ncnc(NCc3ccccc3)n2)cc(OC)c1OC [Compound 630] | 6.53 to 9.53 µM | > 12.2 µM | > 12.2 µM | < 1.09 µM | 1.09 to 6.53 µM | 1.09 to 6.53 µM | > 12.2 µM | 6.53 to 9.53 µM | > 12.2 µM | 9.53 to 12.2 µM |
| CCOc1cccc(Nc2ncnc(Nc3ccc(OC)c(OC)c3)n2)c1 [Compound 783] | 9.53 to 12.2 µM | > 12.2 µM | > 12.2 µM | > 12.2 µM | 1.09 to 6.53 µM | 6.53 to 9.53 µM | > 12.2 µM | 6.53 to 9.53 µM | > 12.2 µM | 1.09 to 6.53 µM |
| Cc1ccc2c(c1)CCCN2c1ncnc(Nc2cc[nH]n2)n1 [Compound 766] | 1.3 to 7.81 µM | > 14.6 µM | < 1.3 µM | 1.3 to 7.81 µM | 1.3 to 7.81 µM | 1.3 to 7.81 µM | > 14.6 µM | 1.3 to 7.81 µM | 1.3 to 7.81 µM | 1.3 to 7.81 µM |
| COc1cc(Nc2ncnc(Nc3cc(Cl)ccc3C)n2)cc(OC)c1OC [Compound 625] | 0.995 to 5.97 µM | > 11.2 µM | > 11.2 µM | < 0.995 µM | < 0.995 µM | < 0.995 µM | > 11.2 µM | < 0.995 µM | > 11.2 µM | 0.995 to 5.97 µM |
| CN(c1cccc(Cl)c1)c1ncnc(Nc2ccc(NC(=O)OC(C)(C)C)cc2)n1 [Compound 750] | > 10.5 µM | > 10.5 µM | > 10.5 µM | < 0.937 µM | 0.937 to 5.62 µM | > 10.5 µM | > 10.5 µM | 5.62 to 8.2 µM | 5.62 to 8.2 µM | > 10.5 µM |
| CN(c1cccc(Cl)c1)c1ncnc(Nc2cccc(Cc3nnn[nH]3)c2)n1 [Compound 720] | 1.02 to 6.09 µM | 6.09 to 8.89 µM | > 11.4 µM | < 1.02 µM | 1.02 to 6.09 µM | 1.02 to 6.09 µM | > 11.4 µM | < 1.02 µM | < 1.02 µM | > 11.4 µM |
| COc1cc(Nc2ncnc(-n3c(NCc4ccc5c(c4)OCO5)nc4ccccc43)n2)cc(OC)c1OC [Compound 595] | 0.758 to 4.55 µM | > 8.53 µM | > 8.53 µM | > 8.53 µM | 6.63 to 8.53 µM | 6.63 to 8.53 µM | 4.55 to 6.63 µM | 0.758 to 4.55 µM | > 8.53 µM | > 8.53 µM |
| COc1ccc(N(C)c2ncnc(-n3c(N)nc4ccccc43)n2)cc1 [Compound 663] | 6.91 to 10.1 µM | > 13 µM | > 13 µM | > 13 µM | > 13 µM | > 13 µM | > 13 µM | > 13 µM | > 13 µM | > 13 µM |
| COc1cc(Nc2ncnc(Nc3cc(OC)c(OCCN4CCOCC4)c(OC)c3)n2)cc(OC)c1OC [Compound 562] | 4.42 to 6.45 µM | > 8.29 µM | > 8.29 µM | < 0.737 µM | < 0.737 µM | 4.42 to 6.45 µM | > 8.29 µM | 4.42 to 6.45 µM | > 8.29 µM | 4.42 to 6.45 µM |
| c1ccc(CNc2nc3ccccc3n2-c2ncnc(Nc3cccc(Cc4nnn[nH]4)c3)n2)cc1 [Compound 957] | < 0.841 µM | 5.05 to 7.36 µM | 0.841 to 5.05 µM | < 0.841 µM | 0.841 to 5.05 µM | < 0.841 µM | 0.841 to 5.05 µM | < 0.841 µM | 0.841 to 5.05 µM | 0.841 to 5.05 µM |
| Cc1ccc2c(c1)CCCN2c1ncnc(NCCc2cccnc2)n1 [Compound 775] | > 13 µM | > 13 µM | > 13 µM | > 13 µM | > 13 µM | > 13 µM | > 13 µM | > 13 µM | > 13 µM | > 13 µM |
| C=CCNc1nc2ccccc2n1-c1ncnc(Nc2cc(OC)c(OC)c(OC)c2)n1 [Compound 574] | < 0.923 µM | > 10.4 µM | > 10.4 µM | > 10.4 µM | < 0.923 µM | < 0.923 µM | > 10.4 µM | > 10.4 µM | > 10.4 µM | 0.923 to 5.54 µM |
| COc1cc(Nc2ncnc(N(C)c3ccc4c(cnn4Cc4ccccc4)c3)n2)cc(OC)c1OC [Compound 566] | < 0.804 µM | > 9.04 µM | > 9.04 µM | < 0.804 µM | < 0.804 µM | 0.804 to 4.82 µM | > 9.04 µM | < 0.804 µM | 0.804 to 4.82 µM | 7.03 to 9.04 µM |
| C=CCNC(=O)c1ccc(-c2cc(Nc3ncnc(Nc4cc(OC)c(OC)c(OC)c4)n3)[nH]n2)cc1 [Compound 1005] | > 8.95 µM | > 8.95 µM | > 8.95 µM | > 8.95 µM | 6.96 to 8.95 µM | > 8.95 µM | > 8.95 µM | > 8.95 µM | 4.78 to 6.96 µM | 0.796 to 4.78 µM |
| COc1cc(Nc2ncnc(-n3c(NCc4cccc([N+](=O)[O-])c4)nc4ccccc43)n2)cc(OC)c1OC [Compound 572] | < 0.757 µM | > 8.51 µM | > 8.51 µM | > 8.51 µM | 0.757 to 4.54 µM | < 0.757 µM | > 8.51 µM | 6.62 to 8.51 µM | 6.62 to 8.51 µM | > 8.51 µM |
| COc1ccc(Nc2nc3ccccc3n2-c2ncnc(Nc3cc(OC)c(OC)c(OC)c3)n2)c(C)c1 [Compound 558] | < 0.779 µM | 4.67 to 6.82 µM | > 8.76 µM | > 8.76 µM | 4.67 to 6.82 µM | 0.779 to 4.67 µM | > 8.76 µM | 6.82 to 8.76 µM | 4.67 to 6.82 µM | > 8.76 µM |
| Cc1ccc2c(c1)CCCN2c1ncnc(Nc2cccc(CO)c2)n1 [Compound 770] | 1.15 to 6.91 µM | > 13 µM | > 13 µM | < 1.15 µM | < 1.15 µM | < 1.15 µM | > 13 µM | < 1.15 µM | < 1.15 µM | 10.1 to 13 µM |
| COc1cc(Nc2ncnc(Nc3cc(-c4ccc(Cl)c(Cl)c4)n[nH]3)n2)cc(OC)c1OC [Compound 589] | 0.819 to 4.91 µM | > 9.21 µM | 4.91 to 7.17 µM | 4.91 to 7.17 µM | 0.819 to 4.91 µM | > 9.21 µM | > 9.21 µM | 4.91 to 7.17 µM | 7.17 to 9.21 µM | < 0.819 µM |
| COc1cc(Nc2ncnc(NC3CCc4ccccc43)n2)cc(OC)c1OC (centres unmarked) [Compound 581] | 8.9 to 11.4 µM | > 11.4 µM | > 11.4 µM | 1.02 to 6.1 µM | 1.02 to 6.1 µM | 6.1 to 8.9 µM | > 11.4 µM | > 11.4 µM | > 11.4 µM | > 11.4 µM |
